target: Human DGAT2 (Homo sapiens (Human), UniProt Q96PD7); assay: DGAT2 Enzymatic Activity Assay (triolein formation, LC/MS/MS); type: biochemical; details: hDGAT2 Sf-9 membrane prep; 25 μM diolein, 10 μM oleoyl-CoA; room temperature
Method: Sf-9 insect cells were maintained in Grace's insect cell culture medium with 10% heated-inactivated fetal bovine serum, 1% Pluronic F-68 and 0.14 μg/m Kanamycine sulfate in Erlenmeyer flasks at 28° C. in a shaker incubator. After infection with untagged hDGAT2 baculovirus at multiplicity of infection (MOI) 0.1 for 48 hours, cells were harvested. Cell pellets were suspended in buffer containing 10 mM Tris-HC (pH 7.5), 1 mM EDTA (pH 8.0), 250 mM sucrose and Complete Protease Inhibitor Cocktail (Roche Diagnostics Corp., Indianapolis, Ill.), and sonicated on ice. Membrane fractions were isolated by ultracentrifugation (100,000×g pellet), resuspended in the same buffer, and frozen (−80° C.) for later use. The protein concentration was determined with the BCA Protein Assay kit (Pierce Biotechnology Inc., Rockford, Ill.). Expression of protein levels was analyzed by immunoblotting with goat polyclonal DGAT2 antibody C-15 and donkey anti-goat IgG HRP (Santa Cruz Biotechnology, Inc., Santa Cruz, Calif.) followed by detection with ECL reagent (GE Healthcare, Piscataway, N.J.).
LC/MS/MS analyses were performed using Thermal Fisher's LX4-TSQ Vantage system. This system consists of an Agilent binary high-performance liquid chromatography (HPLC) pumps and a TSQ Vantage triple quadrupole MS/MS instrument. For each sample, 2 μL samples from the top organic layer of in-plate liquid-liquid extraction were injected onto a Thermo Betabasic C4 column (2.1 mm×20 mm, 5 μm particle size). The samples were then eluted using the following conditions; mobile phase: MeOH/water with 0.1% ammonium format=92/8 (v/v), flow rate: 1 mL/min, temperature: 25 C. Data was acquired in positive mode using a heated electrospray ionization (HESI) interface. The operational parameters for the TSQ Vantage MS/MS instrument were a spray voltage of 3000 V, capillary temperature of 280° C., vaporizer temperature 400° C., shealth gas 60 arbitrary unit, Aux gas 40 arbitrary units, S-lens 113 and collision gas 0.16 Pascals. […] (SRM) chromatograms of triolein (Q1: 902.9>Q3:602.3) and internal standard ([…]) were collected for 40 sec. The peak area was integrated by Xcalibur Quan software. The ratio between the triolein generated in the reaction and spiked in internal standard was used to generate percentage inhibition and IC50 values. Compound percentage inhibition was calculated by the following formula: Inhibition %=1−[(compound response−low control)/(high control−low control)]×100%. Potent compounds were titrated and IC50 were calculated by 4 parameter sigmoidal curve fitting formula.
DGAT2 activity was determined by measuring the amount of enzymatic product triolein (1,2,3-Tri(cis-9-octadecenoyl)glycerol) using the membrane prep mentioned above. The assay was carried out in deep well 384 plates in a final volume of 40 μL at room temperature. The assay mixture contained the following: assay buffer (100 mM Tris.Cl, pH 7.0, 20 mM MgCl2, 5% ethanol), 25 μM of diolein, 10 μM of oleoyl-CoA and 10 ng/μL of DGAT2 membrane.

Sequence of Human DGAT2 (Q96PD7 whole entry): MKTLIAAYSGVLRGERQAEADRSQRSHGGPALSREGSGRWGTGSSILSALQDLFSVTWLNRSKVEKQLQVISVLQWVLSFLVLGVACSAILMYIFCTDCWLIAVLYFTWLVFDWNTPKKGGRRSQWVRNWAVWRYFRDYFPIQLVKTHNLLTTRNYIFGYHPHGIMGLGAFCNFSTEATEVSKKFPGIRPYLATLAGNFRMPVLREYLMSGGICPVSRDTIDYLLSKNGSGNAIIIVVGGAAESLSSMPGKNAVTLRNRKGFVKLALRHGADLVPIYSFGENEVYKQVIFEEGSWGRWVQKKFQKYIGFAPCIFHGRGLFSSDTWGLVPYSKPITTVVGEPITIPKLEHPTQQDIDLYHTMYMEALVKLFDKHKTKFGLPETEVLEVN

IC50 | SMILES
372 nM | O=C(NC1(CO)CCS(=O)(=O)C1)c1ccc2c(-c3ccccc3Cl)nn(-c3ccc(F)cc3)c2c1 (racemic) [Example 92, 3-(2-chlorophenyl)-1-(4-fluorophenyl)-N-[3-(hydroxymethyl)-1,1-dioxidotetrahydrothiophen-3-yl]-1H-indazole-6-carboxamide]
45 nM | O=C(NC1(CO)CCSC1)c1ccc2c(-c3ccccc3Cl)nn(-c3ccc(F)cc3)c2c1 (racemic) [Example 98, 3-(2-chlorophenyl)-1-(4-fluorophenyl)-N-[3-(hydroxymethyl)tetrahydrothiophen-3-yl]-1H-indazole-6-carboxamide]
179 nM | O=C(NC1CNCCS(=O)(=O)C1)c1ccc2c(-c3ccccc3Cl)nn(-c3ccc(F)cc3)c2c1 (racemic) [Example 102, 3-(2-chlorophenyl)-N-(1,1-dioxido-1,4-thiazepan-6-yl)-1-(4-fluorophenyl)-1H-indazole-6-carboxamide]
532 nM | O=C(NC(CCN1CCOCC1)c1ccccc1)c1ccc2c(-c3ccccc3Cl)nn(-c3ccc(F)cc3)c2c1 (racemic) [Example 109, 3-(2-chlorophenyl)-1-(4-fluorophenyl)-N-(3-morpholin-4-yl-1-phenylpropyl)-1H-indazole-6-carboxamide]
593 nM | CC(Cc1ccccn1)NC(=O)c1ccc2c(-c3ccccc3Cl)nn(-c3ccc(F)cc3)c2c1 (racemic) [Example 112, 3-(2-chlorophenyl)-1-(4-fluorophenyl)-N-(1-methyl-2-pyridin-2-ylethyl)-1H-indazole-6-carboxamide]
41 nM | CC(O)CC(C)(C)NC(=O)c1ccc2c(-c3ccccc3Cl)nn(-c3ccc(F)cc3)c2c1 (racemic) [Example 113, 3-(2-chlorophenyl)-1-(4-fluorophenyl)-N-(3-hydroxy-1,1-dimethylbutyl)-1H-indazole-6-carboxamide]
855 nM | CN(C)C(=O)c1cccc(-c2nn(-c3ccc(F)cc3)c3cc(C(=O)NC4(C)CCS(=O)(=O)C4)ccc23)c1 (racemic) [Example 148, 3-[3-(dimethylcarbamoyl)phenyl]-1-(4-fluorophenyl)-N-(3-methyl-1,1-dioxidotetrahydrothiophen-3-yl)-1H-indazole-6-carboxamide]
249 nM | CC1(NC(=O)c2ccc3c(-c4cccc(C(N)=O)c4)nn(-c4ccc(F)cc4)c3c2)CCS(=O)(=O)C1 (racemic) [Example 149, 3-(3-carbamoylphenyl)-1-(4-fluorophenyl)-N-(3-methyl-1,1-dioxidotetrahydrothiophen-3-yl)-1H-indazole-6-carboxamide]
311 nM | CC1(NC(=O)c2ccc3c(-c4cccc(C(C)(C)O)c4)nn(-c4ccc(F)cc4)c3c2)CCS(=O)(=O)C1 (racemic) [Example 150, 1-(4-fluorophenyl)-3-[3-(1-hydroxy-1-methylethyl)phenyl]-N-(3-methyl-1,1-dioxidotetrahydrothiophen-3-yl)-1H-indazole-6-carboxamide]
340 nM | Cn1nnc2ccc(-c3nn(-c4ccc(F)cc4)c4cc(C(=O)NC5(C)CCS(=O)(=O)C5)ccc34)cc21 (racemic) [Example 163, 1-(4-fluorophenyl)-3-(1-methyl-1H-benzotriazol-6-yl)-N-(3-methyl-1,1-dioxidotetrahydrothiophen-3-yl)-1H-indazole-6-carboxamide]
28 nM | Cc1nnc(-c2cccc(-c3nn(-c4ccc(F)cc4)c4cc(C(=O)NC5(C)CCS(=O)(=O)C5)ccc34)c2)o1 (racemic) [Example 164, 1-(4-fluorophenyl)-N-(3-methyl-1,1-dioxidotetrahydrothiophen-3-yl)-3-[3-(5-methyl-1,3,4-oxadiazol-2-yl)phenyl]-1H-indazole-6-carboxamide]
7 nM | CC1(NC(=O)c2ccc3c(-c4cccc(-n5cccn5)c4)nn(-c4ccc(F)cc4)c3c2)CCS(=O)(=O)C1 (racemic) [Example 165, 1-(4-fluorophenyl)-N-(3-methyl-1,1-dioxidotetrahydrothiophen-3-yl)-3-[3-(1H-pyrazol-1-yl)phenyl]-1H-indazole-6-carboxamide]
383 nM | O=C(NC1CCS(=O)(=O)C1)c1ccc2c(-c3ccccc3Cl)nn(Cc3ccccc3)c2c1 (racemic) [Example 167, (±)-1-Benzyl-3-(2-chlorophenyl-N-(1,1-dioxidotetrahydrothiophen-3-yl)-1-indazole-6-carboxamide]
222 nM | COC(=O)c1cccc(-n2nc(-c3ccccc3Cl)c3ccc(C(=O)NC4(C)CCS(=O)(=O)C4)cc32)c1 (racemic) [Example 180, methyl 3-{3-(2-chlorophenyl)-6-[(3-methyl-1,1-dioxidotetrahydrodioxidotetra-hydrodioxidotetrahydrodioxido-tetrahydro-thiophen-3-yl)carbamoyl]-1H-indazol-1-yl}benzoate]
391 nM | CC1(NC(=O)c2ccc3c(-c4ccccc4Cl)nn(-c4ncc(F)cn4)c3c2)CCS(=O)(=O)C1 (racemic) [Example 181, 3-(2-chlorophenyl)-1-(5-fluoropyrimidin-2-yl)-N-(3-methyl-1,1-dioxidotetradioxidotetradioxido-tetradioxidotetra-hydrothiophen-3-yl)-1H-indazole-6-carboxamide]
371 nM | CC1(NC(=O)c2ccc3c(-c4ccccc4Cl)nn(-c4nnc(C(F)(F)F)s4)c3c2)CCS(=O)(=O)C1 (racemic) [Example 182, 3-(2-chlorophenyl)-N-(3-methyl-1,1-dioxidotetrahydrothiophen-3-yl)-1-[5-(trifluoromethyl)-1,3,4-thiadiazol-2-yl]-1H-indazole-6-carboxamide]
460 nM | CC1(NC(=O)c2ccc3c(-c4ccccc4Cl)nn(-c4nnc(C(C)(C)C)s4)c3c2)CCS(=O)(=O)C1 (racemic) [Example 183, 1-(5-tert-butyl-1,3,4-thiadiazol-2-yl)-3-(2-chlorophenyl)-N-(3-methyl-1,1-dioxidotetrahydrothiophen-3-yl)-1H-indazole-6-carboxamide]
201 nM | Cn1ccc(-n2nc(-c3ccccc3Cl)c3ccc(C(=O)NC4(C)CCS(=O)(=O)C4)cc32)n1 (racemic) [Example 184, 3-(2-chlorophenyl)-N-(3-methyl-1,1-dioxidotetrahydrothiophen-3-yl)-1-(1-methyl-1H-pyrazol-3-yl)-1H-indazole-6-carboxamide]
9.5 nM | Cc1ccc(-n2nc(-c3ccccc3Cl)c3ccc(C(=O)NC4(C)CCS(=O)(=O)C4)cc32)nc1 (racemic) [Example 185, 3-(2-chlroophenyl)-N-(3-methyl-1,1-dioxidotetrahydrothiophen-3-yl)-1-(5-methylpyridin-2-yl)-1H-indazole-6-carboxamide]
322 nM | COc1cccc(-n2nc(-c3ccccc3Cl)c3ccc(C(=O)NC4(C)CCS(=O)(=O)C4)cc32)n1 (racemic) [Example 186, 3-(2-chlorophenyl)-1-(6-methoxypyridin-2-yl)-N-(3-methyl-1,1-dioxidotetrahydrothiophen-3-yl)-1H-indazole-6-carboxamide]
644 nM | COC(=O)c1ccc(-n2nc(-c3ccccc3Cl)c3ccc(C(=O)NC4(C)CCS(=O)(=O)C4)cc32)cc1 (racemic) [Example 187, methyl 4-{3-(2-chlorophenyl)-6-[(3-methyl-1,1-dioxidotetrahydrothiophen-3-yl)carbamoyl]-1H-indazol-1-yl}benzoate]
95 nM | CCOC(=O)c1coc(-n2nc(-c3ccccc3Cl)c3ccc(C(=O)NC4(C)CCS(=O)(=O)C4)cc32)n1 (racemic) [Example 188, ethyl 2-{3-(2-chlorophenyl)-6-[(3-methyl-1,1-dioxidotetrahydrothiophen-3-yl)carbamoyl]-1H-indazol-1-yl}-1,3-oxazole-4-carboxylate]
409 nM | CC1(NC(=O)c2ccc3c(-c4ccccc4Cl)nn(-c4cccnc4)c3c2)CCS(=O)(=O)C1 (racemic) [Example 189, 3-(2-chlorophenyl)-N-(3-methyl-1,1-dioxidotetrahydrothiophen-3-yl)-1-pyridin-3-yl-1H-indazole-6-carboxamide]

Source: US11104690B2, “Indazole derivatives useful as inhibitors of diacylglyceride O-acyltransferase 2” (Merck Sharp & Dohme Corp., priority 2016, dated 2021)
